According to ChEMBL document CHEMBL1122904, “Bioactive conformation of 1-arylpiperazines at central serotonin receptors” (J Med Chem, 1985):

Biological target: 5-hydroxytryptamine receptor 1B (Rattus norvegicus, UniProt P28564)
Experiment: Intrinsic affinity towards serotonin receptor from rat frontal cortex by displacement of [3H]5-HT
Type: tissue-based

Sequence of 5-hydroxytryptamine receptor 1B (P28564 whole entry): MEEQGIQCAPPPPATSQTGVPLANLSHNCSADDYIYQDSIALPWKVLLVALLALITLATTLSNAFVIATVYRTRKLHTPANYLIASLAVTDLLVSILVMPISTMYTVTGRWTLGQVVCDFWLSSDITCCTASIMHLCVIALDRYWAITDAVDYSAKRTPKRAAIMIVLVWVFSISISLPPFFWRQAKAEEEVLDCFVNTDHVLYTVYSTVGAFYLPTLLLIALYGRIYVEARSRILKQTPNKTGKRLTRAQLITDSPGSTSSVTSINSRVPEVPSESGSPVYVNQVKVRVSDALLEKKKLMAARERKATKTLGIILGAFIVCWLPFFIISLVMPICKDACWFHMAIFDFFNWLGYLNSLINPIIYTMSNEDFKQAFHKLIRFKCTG

| Compound | Ki |
| --- | --- |
| FC(F)(F)c1ccc2c(c1)N1CCNCC1CC2 (stereo not drawn) | 0.067 µM |
| Clc1cncc(N2CCNCC2)n1 [MK-212] | 3.63 µM |
| FC(F)(F)c1cccc(N2CCNCC2)c1 | 0.116 µM |
